According to patent US20240408222A1, “COMPOUNDS, PHARMACEUTICAL COMPOSITIONS, AND METHODS FOR THE TREATMENT, PREVENTION, OR MANAGEMENT OF HYPERPRO[…]” (VINCERX PHARMA GMBH, priority 2021, published 2024):

Key:
HT29 [1] = experiment: Cytotoxicity in vitro (MTT) in presence/absence of elastase; type: cell-based, human; conditions: 72 h
Method: (§1) Cultivation of cells was performed according to standard procedures with the media recommended by the provider. The cells, in a total volume of 100 μL, were seeded in a 96-well plate with a white bottom (#3610). After a 24 h incubation period at 37° C. and […], the medium was exchanged by adding 90 μL fresh medium. The treatment started by adding the test compound in 10 μL of culture medium to the cells in triplicates. Concentrations ranging from 10^−5 M to 10^−13 M were chosen. Two identically treated sets of samples were prepared. One set was treated with the test compound alone, whereas to the second set the compound and 10 nM elastase was added followed by a 72 h incubation period at 37° C. and […]. The proliferation was detected using the MTT assay (ATCC). At the end of the incubation period the MTT reagent was added to all samples for 4 h. Lysis of the cells followed by addition of the detergent was done overnight. The formed dye was detected at 570 nm. The proliferation of untreated but otherwise identically handled cells was define as the 100% value.

786-O [2] = experiment: as above; type: cell-based, human; conditions: 72 h
Method: as §1

NCI H292 [3] = experiment: as above; type: cell-based, human; conditions: 72 h
Method: as §1

SUM149 [4] = experiment: Cytotoxicity assay (Version 2, automated, AC50) with/without neutrophil elastase; type: cell-based; conditions: Version 2, activity concentration at −50%
Method: as §1
(§2) The cytotoxicity assay (Version 2) was performed as described above. Some changes were applied as the assays were performed in an automated fashion and the IC50 values determination was changed. Here the change in metabolic activity of the cells, in percent, was calculated by normalization of the measured values to the absorbance values of medium containing wells without cells (═−100%) and the absorbance of the DMSO-treated cells (═0%). AC50 values (activity concentration at −50%) were determined by means of a 4 parameter Hill-fit using GeneData Screener software.

HT29 [5] = experiment: as above; type: cell-based, human; conditions: Version 2, activity concentration at −50%
Method: as §1, §2

786-O [6] = experiment: as above; type: cell-based, human; conditions: Version 2, activity concentration at −50%
Method: as §1, §2

NCI H292 [7] = experiment: as above; type: cell-based, human; conditions: Version 2, activity concentration at −50%
Method: as §1, §2

SUM149 [8] = experiment: Cytotoxicity in vitro (MTT) in presence/absence of elastase; type: cell-based; conditions: 72 h
Method: as §1

[9] = HT29, with (+) 10 nM neutrophil elastase
[10] = HT29, without (−) neutrophil elastase
[11] = with (+) 10 nM neutrophil elastase
[12] = without (−) neutrophil elastase
[13] = NCI H292, with (+) 10 nM neutrophil elastase
[14] = NCI H292, without (−) neutrophil elastase
[15] = SUM149, with (+) neutrophil elastase
[16] = SUM149, without (−) neutrophil elastase
[17] = HT29, with (+) neutrophil elastase
[18] = NCI H292, with (+) neutrophil elastase
[19] = SUM149, with (+) 10 nM neutrophil elastase

Compound | IC50 (HT29 [1]; [9]) | IC50 (HT29 [1]; [10]) | IC50 (786-O [2]; [11]) | IC50 (786-O [2]; [12]) | IC50 (NCI H292 [3]; [13]) | IC50 (NCI H292 [3]; [14]) | AC50 (SUM149 [4]; [15]) | AC50 (SUM149 [4]; [16]) | AC50 (HT29 [5]; [17]) | AC50 (HT29 [5]; [10]) | AC50 (786-O [6]; with (+) neutrophil elastase) | AC50 (786-O [6]; [12]) | AC50 (NCI H292 [7]; [18]) | AC50 (NCI H292 [7]; [14]) | IC50 (SUM149 [8]; [19]) | IC50 (SUM149 [8]; [16])
CCCNC(=O)Nc1cccc(S(=O)(=O)Nc2cccc([C@H](CC(=O)O)NC(=O)Nc3ccc(NC(=O)NCCOCCOCCOCCC(=O)N[C@@H](CC(=O)O)C(=O)N4CCC[C@H]4C(=O)N[C@H](C(=O)N=[S@@](C)(=O)Cc4cc5cc(c4)OCCCCOc4cc(F)ccc4-c4nc(ncc4F)N5)C(C)C)cc3)c2)c1 [Compound 14] | ≤ 0.001 µM | > 0.1 µM | ≤ 0.001 µM | > 0.1 µM | 0.0011 to 0.01 µM | > 0.1 µM | 0.011 to 0.1 µM | 0.1 to 1 µM | 0.011 to 0.1 µM | > 1 µM | 0.011 to 0.1 µM | > 1 µM | 0.011 to 0.1 µM | 0.1 to 1 µM | ≤ 0.001 µM | > 0.1 µM
CCCNC(=O)Nc1cccc(S(=O)(=O)Nc2cccc([C@@H](CC(=O)O)NC(=O)Nc3ccc(NC(=O)NCCOCCOCCOCCC(=O)N[C@@H](CC(=O)O)C(=O)N4CCC[C@H]4C(=O)N[C@H](C(=O)N=S(C)(=O)Cc4cccc(Nc5ncnc(-c6ccc(F)cc6OC)n5)c4)C(C)C)cc3)c2)c1 (relative stereo) [Compound 1, disodium 1-[(2S)-2-(carboxylatomethyl)-17-{4-[({(1R)-2-carboxylato-1-[3-({3-[(propylcarbamoyl)amino]benzene-1-sulfonyl}amino)phenyl]ethyl}carbamoyl)amino]anilino}-4,17-dioxo-7,10,13-trioxa-3,16-diazaheptadecanan-1-oyl]-L-prolyl-N—[(R*)-[(3-{[4-(4-fluoro-2-methoxyphenyl)-1,3,5-triazin-2-yl]amino}phenyl)methyl](methyl)oxo-lambda^6-sulfanylidene]-L-valinamide] | 0.011 to 0.1 µM | > 0.1 µM | 0.011 to 0.1 µM | 0.011 to 0.1 µM | 0.011 to 0.1 µM | > 0.1 µM | 0.1 to 1 µM | > 1 µM | > 1 µM | > 1 µM | > 1 µM | > 1 µM | 0.011 to 0.1 µM | > 1 µM | 0.011 to 0.1 µM | > 0.1 µM
CCCNC(=O)Nc1cccc(S(=O)(=O)Nc2cccc([C@@H](CC(=O)O)NC(=O)Nc3ccc(NC(=O)NCCN(C)CCN(C)CCN(C)CC(=O)N[C@@H](CC(N)=O)C(=O)N4CCC[C@H]4C(=O)N[C@H](C(=O)N=[S@](C)(=O)Cc4cc5cc(c4)OCCCCCNc4cc(ccc4F)-c4nc(ncc4F)N5)C(C)C)cc3)c2)c1 (relative stereo) [Compound 17] | ≤ 0.001 µM | 0.011 to 0.1 µM | 0.0011 to 0.01 µM | > 0.1 µM | ≤ 0.001 µM | 0.011 to 0.1 µM | ≤ 0.01 µM | 0.1 to 1 µM | ≤ 0.01 µM | > 1 µM | ≤ 0.01 µM | 0.1 to 1 µM | ≤ 0.01 µM | 0.1 to 1 µM | 0.0011 to 0.01 µM | 0.011 to 0.1 µM
CCCNC(=O)Nc1cccc(S(=O)(=O)Nc2cccc([C@@H](CC(=O)O)NC(=O)Nc3ccc(NC(=O)NCCN(C)CCN(C)CCN(C)CC(=O)N[C@@H](CC(N)=O)C(=O)N4CCC[C@H]4C(=O)N[C@H](C(=O)N=[S@@](C)(=O)Cc4cc5cc(c4)OCCCCCNc4cc(ccc4F)-c4nc(ncc4F)N5)C(C)C)cc3)c2)c1 (relative stereo) [Compound 15] | ≤ 0.001 µM | > 0.1 µM | ≤ 0.001 µM | > 0.1 µM | ≤ 0.001 µM | 0.011 to 0.1 µM | 0.1 to 1 µM | 0.1 to 1 µM | 0.1 to 1 µM | 0.1 to 1 µM | 0.1 to 1 µM | 0.1 to 1 µM | 0.011 to 0.1 µM | 0.1 to 1 µM | ≤ 0.001 µM | 0.011 to 0.1 µM
CCCNC(=O)Nc1cccc(S(=O)(=O)Nc2cccc([C@@H](CC(=O)O)NC(=O)Nc3ccc(NC(=O)NCCOCCOCCOCCC(=O)N[C@@H](CC(=O)O)C(=O)N4CCC[C@H]4C(=O)N[C@@H](C(=O)N=[S@@](C)(=O)Cc4cc5cc(c4)O[C@@H](C)CCOc4cc(F)ccc4-c4nc(ncc4F)N5)C(C)C)cc3)c2)c1 (relative stereo) [Compound 39, N-(14-{4-[({(1R)-2-carboxy-1-[3-({3-[(propylcarbamoyl)amino]benzene-1-sulfonyl}amino)phenyl]ethyl}carbamoyl)amino]anilino}-14-oxo-4,7,10-trioxa-13-azatetradecanan-1-oyl)-L-alpha-aspartyl-L-prolyl-N—[(R*)—{[(4R*)-15,19-difluoro-4-methyl-3,4-dihydro-2H,11H-12,16-(azeno)-10,6-(metheno)-1,5,11,13-benzodioxadiazacyclooctadecin-8-yl]methyl}(methyl)oxo-lambda^6-sulfanylidene]-D-valinamide] |  |  |  |  |  |  | ≤ 0.01 µM | 0.1 to 1 µM | ≤ 0.01 µM | 0.1 to 1 µM | ≤ 0.01 µM | 0.1 to 1 µM | ≤ 0.01 µM | 0.1 to 1 µM |  | 
CCCNC(=O)Nc1cccc(S(=O)(=O)Nc2cccc([C@@H](CC(=O)O)NC(=O)Nc3ccc(NC(=O)NCCOCCOCCOCCC(=O)N[C@@H](CC(=O)O)C(=O)N4CCC[C@H]4C(=O)N[C@H](C(=O)N=S(C)(=O)Cc4cc5cc(c4)OCCCCOc4cc(F)ccc4-c4nc(ncc4F)N5)C(C)C)cc3)c2)c1 (relative stereo) [Compound 36] |  |  |  |  |  |  | 0.011 to 0.1 µM | 0.1 to 1 µM | 0.011 to 0.1 µM | 0.1 to 1 µM | 0.011 to 0.1 µM | 0.1 to 1 µM | 0.011 to 0.1 µM | 0.1 to 1 µM |  | 
disodium 1-{(2S)-2-(carboxylatomethyl)-17-[4-({[(1R)-2-carboxylato-1-{3-[({3-[(propylcarbamoyl)amino]phenyl}sulfonyl)amino]phenyl}ethyl]carbamoyl}amino)anilino]-4,17-dioxo-7,10,13-trioxa-3,16-diazaheptadecan-1-oyl}-L-prolyl-N—[(R*)—{[15,19-difluoro-3,4-dihydro-2H,11H-10,6-(azeno)-12,16-(metheno)-1,5,11,13-benzodioxadiazacyclooctadecin-8-yl]methyl}(methyl)oxido-lambda^6-sulfanylidene]-L-valinamide [Compound 42] |  |  |  |  |  |  | ≤ 0.01 µM | 0.1 to 1 µM | ≤ 0.01 µM | > 1 µM | ≤ 0.01 µM | 0.1 to 1 µM | ≤ 0.01 µM | 0.1 to 1 µM |  | 
CCCNC(=O)Nc1cccc(S(=O)(=O)Nc2cccc([C@@H](CC(=O)O)NC(=O)Nc3ccc(NC(=O)NCCN(C)CCN(C)CCN(C)CC(=O)N[C@@H](CC(N)=O)C(=O)N4CCC[C@H]4C(=O)N[C@H](C(=O)N=[S@@](C)(=O)Cc4cc5cc(c4)O[C@@H](C)CCOc4cc(F)ccc4-c4nc(ncc4F)N5)C(C)C)cc3)c2)c1 (single isomer, unassigned) [Compound 24] |  |  |  |  |  |  | ≤ 0.01 µM | 0.1 to 1 µM | ≤ 0.01 µM | 0.1 to 1 µM | ≤ 0.01 µM | 0.1 to 1 µM | ≤ 0.01 µM | 0.1 to 1 µM |  | 
CCCNC(=O)Nc1cccc(S(=O)(=O)Nc2cccc([C@@H](CC(=O)O)NC(=O)Nc3ccc(NC(=O)N(C)CCN(C)CCN(C)CC(=O)N[C@@H](CC(N)=O)C(=O)N4CCC[C@H]4C(=O)N[C@H](C(=O)N=S(C)(=O)Cc4cc5cc(c4)OC(C)CCOc4cc(F)ccc4-c4nc(ncc4F)N5)C(C)C)cc3)c2)c1 (relative stereo) [Compound 6] | ≤ 0.001 µM | > 0.1 µM |  |  | ≤ 0.001 µM | > 0.1 µM | ≤ 0.01 µM | ≤ 0.01 µM | ≤ 0.01 µM | ≤ 0.01 µM | ≤ 0.01 µM | ≤ 0.01 µM | ≤ 0.01 µM | 0.1 to 1 µM | ≤ 0.001 µM | 0.011 to 0.1 µM
